Data: patent US20200375945A1, “INHALABLE FORMULATION OF A SOLUTION CONTAINING INDACATEROL MALEATE AND GLYCOPYRRONIUM BROMIDE” (priority 2019, published 2020)

Columns and labels:
[1] = Aerodynamic particle size distribution on Next Generation Impactor (NGI); type: physicochemical; conditions: sample 2 sprayed with soft mist inhaler, NGI at 30 L/min
Procedure: Sample 2 was sprayed with a soft mist inhaler. Aerodynamic particle size distribution of droplets of sample 2 was measured on Next Generation Impactor (NGI). Next Generation Impactor operated at a flow rate of 30 L/min was used for determination of particle size distribution. For each of the impactor experiments, the impactor collection stages were coated with a silicone oil. The aerodynamic particle size distribution is expressed in terms of mass median aerodynamic diameter (MMAD) and Geometric Standard Deviation (GSD).

[2] = Tested concentration and assay of the active ingredients in the inhalation solution; type: physicochemical; conditions: in the sample solutions (ethanol/water, benzalkonium chloride, edetate disodium dihydrate)

MMAD (mass median aerodynamic diameter) [1]: 3.37 μm
Dissolution of the active in the solution [2]: completely dissolved
Structure (SMILES): CCc1cc2c(cc1CC)CC(NC[C@H](O)c1ccc(O)c3[nH]c(=O)ccc13)C2.O=C(O)/C=C\C(=O)O [Indacaterol maleate, 5-[(R)-2-(5,6-diethyl-indan-2-ylamino)-1-hydroxy-ethyl]-8-hydroxy-(1H)-quinolin-2-one]
